According to ChEMBL document CHEMBL1143044, “The isolation of secondary metabolites and in vitro potent anti-cancer activity of clerodermic acid from Enicosanthum membranifolium” (Bioorg Med Chem, 2007):
The source made the active and inactive calls. The rule behind the calls is not given here.

Legend:
Format in all cases: functional, cell-based
HL-60 [1] = assay: Growth inhibition of human HL60 cells by Trypan blue exclusion test
HL-60 [2] = assay: Induction of apoptosis in human HL60 cells assessed as nucleosomal DNA fragmentation after 24 hrs
HL-60 [3] = assay: Induction of apoptosis in human HL60 cells at 200 uM in presence of 100 uM caspase inhibitor ZVADFMK by Trypan blue exclusion test

IC50 (HL-60 [1]): 68 µM
SMILES: C[C@@H]1CC[C@@]2(C)C(C(=O)O)=CCCC2[C@@]1(C)CCC1=CC(=O)OC1 (stereo partly drawn) [CLERODERMIC ACID]
Activity (HL-60 [2]): Active | Activity (HL-60 [3]): Active
